Earlier results on 1 molecule are cited in patent US20050129719A1, “Concentrated emulsion formulation for silatecan” (priority 2003, published 2005).

SMILES strings stand for the structures.

With `CC[C@@]1(O)C(=O)OCc2c1cc1n(c2=O)Cc2c-1nc1ccc(O)cc1c2[Si](C)(C)C(C)(C)C` [Silatecan, 7-t-butyldimethylsilyl-10-hydroxycamptothecin], the water-solubility entry is “extremely low water-solubility”.
